Measured values taken from PubChem BioAssay (NCI).
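Protocol summary: plate cells (96-well), add compound at 5 concentrations, incubate 48 h, interpolate endpoints linearly. At the GI50, growth is halved. TGI marks complete inhibition of growth.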

Legend:
Test in all cases: NCI anticancer screen, dose series, 48 h
[1] = tested on: NCI-H23 lung
[2] = tested on: SW-620 colon
[3] = tested on: TK-10 renal
[4] = tested on: SK-MEL-5 melanoma
[5] = tested on: HOP-92 NSCLC
[6] = tested on: MCF7 breast
[7] = tested on: COLO 205 colon
[8] = tested on: T-47D breast
[9] = tested on: HCT-15 colon
[10] = tested on: 786-0 renal
[11] = tested on: SNB-75 CNS
[12] = tested on: K-562 leukemia
[13] = tested on: DU-145 prostate
[14] = tested on: OVCAR-5 ovarian
[15] = tested on: SF-268 CNS
[16] = tested on: HL-60(TB) leukemia
[17] = tested on: OVCAR-4 ovarian
[18] = tested on: OVCAR-8 ovarian
[19] = tested on: MALME-3M melanoma
[20] = tested on: UO-31 renal
[21] = tested on: SNB-19 CNS
[22] = tested on: OVCAR-3 ovarian
[23] = tested on: A498 renal
[24] = tested on: SR leukemia
[25] = tested on: UACC-257 melanoma
[26] = tested on: SF-539 CNS
[27] = tested on: PC-3 prostate
[28] = tested on: SK-OV-3 ovarian
[29] = tested on: HT29 colon
[30] = tested on: A549 NSCLC
[31] = tested on: SF-295 CNS
[32] = tested on: LOX IMVI melanoma
[33] = tested on: MOLT-4 leukemia
[34] = tested on: NCI-H226 lung
[35] = tested on: RXF 393 renal
[36] = tested on: NCI-H460 lung
[37] = tested on: EKVX NSCLC
[38] = tested on: ACHN renal
[39] = tested on: CAKI-1 renal
[40] = tested on: HCT-116 colon
[41] = tested on: MDA-MB-231 breast
[42] = tested on: HOP-62 NSCLC
[43] = tested on: KM12 colon
[44] = tested on: BT-549 breast
[45] = tested on: CCRF-CEM leukemia
[46] = tested on: SN12C renal
[47] = tested on: NCI-H522 lung
[48] = tested on: HCC-2998 colon
[49] = tested on: U251 CNS
[50] = tested on: IGROV1 ovarian
[51] = tested on: MDA-MB-468 breast
[52] = tested on: RPMI-8226 leukemia
[53] = tested on: UACC-62 melanoma
[54] = tested on: SK-MEL-28 melanoma

COc1cccc(C(N)=Nc2ccc(OCCCCCCn3cncn3)cc2)c1
GI50 [1]: 3.44 µM
TGI [1]: > 100 µM
GI50 [2]: 0.537 µM
TGI [2]: > 100 µM
GI50 [3]: 6.48 µM
TGI [3]: > 100 µM
GI50 [4]: 1.47 µM
TGI [4]: 10.2 µM
GI50 [5]: 4.13 µM
TGI [5]: > 100 µM
GI50 [6]: 0.465 µM
TGI [6]: > 100 µM
GI50 [7]: 1.75 µM
TGI [7]: 10.3 µM
GI50 [8]: 3.32 µM
TGI [8]: > 100 µM
GI50 [9]: 2.43 µM
TGI [9]: > 100 µM
GI50 [10]: 0.628 µM
TGI [10]: > 100 µM
GI50 [11]: 1.91 µM
TGI [11]: > 100 µM
GI50 [12]: 0.475 µM
TGI [12]: > 100 µM
GI50 [13]: 3.05 µM
TGI [13]: 51.6 µM
GI50 [14]: 3.18 µM
TGI [14]: > 100 µM
GI50 [15]: 4.3 µM
TGI [15]: 86.2 µM
GI50 [16]: 0.567 µM
TGI [16]: 42.9 µM
GI50 [17]: 12.8 µM
TGI [17]: > 100 µM
GI50 [18]: 3.16 µM
TGI [18]: 28.1 µM
GI50 [19]: 1.57 µM
TGI [19]: > 100 µM
GI50 [20]: 4.51 µM
TGI [20]: > 100 µM
GI50 [21]: 4.45 µM
TGI [21]: > 100 µM
GI50 [22]: 0.601 µM
TGI [22]: 3.36 µM
GI50 [23]: 26.1 µM
TGI [23]: > 100 µM
GI50 [24]: 0.537 µM
TGI [24]: > 100 µM
GI50 [25]: 8.67 µM
TGI [25]: > 100 µM
GI50 [26]: 1.61 µM
TGI [26]: 4.82 µM
GI50 [27]: 1.86 µM
TGI [27]: > 100 µM
GI50 [28]: 4.69 µM
TGI [28]: > 100 µM
GI50 [29]: 1.23 µM
TGI [29]: 5.07 µM
GI50 [30]: 2.86 µM
TGI [30]: > 100 µM
GI50 [31]: 1.5 µM
TGI [31]: 30.7 µM
GI50 [32]: 2.78 µM
TGI [32]: > 100 µM
GI50 [33]: 3.19 µM
TGI [33]: > 100 µM
GI50 [34]: 2.67 µM
TGI [34]: 9.75 µM
GI50 [35]: 2.3 µM
TGI [35]: > 100 µM
GI50 [36]: 1.18 µM
TGI [36]: 22.1 µM
GI50 [37]: 2.92 µM
TGI [37]: > 100 µM
GI50 [38]: 4.26 µM
TGI [38]: > 100 µM
GI50 [39]: 0.909 µM
TGI [39]: > 100 µM
GI50 [40]: 0.439 µM
TGI [40]: > 100 µM
GI50 [41]: 1.7 µM
TGI [41]: 57.6 µM
GI50 [42]: 4.13 µM
TGI [42]: > 100 µM
GI50 [43]: 1.54 µM
TGI [43]: > 100 µM
GI50 [44]: 0.957 µM
TGI [44]: > 100 µM
GI50 [45]: 1.04 µM
TGI [45]: > 100 µM
GI50 [46]: 3.61 µM
TGI [46]: > 100 µM
GI50 [47]: 1.08 µM
TGI [47]: 3.96 µM
GI50 [48]: 2.78 µM
TGI [48]: > 100 µM
GI50 [49]: 3.61 µM
TGI [49]: > 100 µM
GI50 [50]: 3.53 µM
TGI [50]: > 100 µM
GI50 [51]: 0.429 µM
TGI [51]: > 100 µM
GI50 [52]: 2.82 µM
TGI [52]: > 100 µM
GI50 [53]: 2.06 µM
TGI [53]: > 100 µM
GI50 [54]: 4.6 µM
TGI [54]: > 100 µM
